Data from US12439914B2, “Bactrocera oleae attractant composition and uses thereof” (CEARITIS, priority 2020, dated 2025).

Tested on: Bactrocera oleae
Test: Attractiveness in glass Y-tube olfactometer (behavioural response of the olive fruit fly)
Assay type: in vivo
Conditions: 10 ng on filter paper vs dichloromethane control; individual female flies 8 to 30 days old; Y-tube choice
Experimental: The attractiveness of the active substances of the attractant composition according to the invention was evaluated using a glass Y-tube olfactometer (internal diameter 4.5 cm; length of the arm 22 cm; length of the main stem 24.5 cm). The assembly was placed in a lit room at 22° C. Screws held the Y-tube in an inclined position (angle of […] between the Y-tube and the horizontal plane). The Y-tube was placed in the centre of an artificially lit box (60×60×60 cm), covered with sheets on the outside in order to avoid external stimuli. The tubes at the end of the Y were connected to two glass adaptors, to which 30 ml glass flasks were attached, each containing a 1 cm^2 piece of filter paper. […]
Individual female flies—from 8 to 30 days old—were released one by one into the first cm of the base tube of the olfactometer using a manual aspirator. […] The air suction tube was connected to the glass Y-tube and the time until the flies reached the end of one of the arms of the Y was recorded. […]
In order to evaluate the attractiveness of one molecule vis-à-vis Bactrocera oleae, the data collected were analyzed with a khi2 statistical test on Excel and R. The p value, obtained in this test, indicates the probability of obtaining the same value if the null hypothesis was true. […]

| Compound | Behavioural response obtained using the substance tested (expressed in %) [%] |
| --- | --- |
| CCCCCCCCCC=O [Decanal, decanal] | 68.00 |
| C=C1CC/C=C(\C)CC[C@@H]2[C@@H]1CC2(C)C [Beta-caryophyllene, beta-caryophyllene] | 70.00 |
